Assay results from patent US20130085105A1, “Transdermal Administration Of Peptides” (The Provost, Fellows and Scholars of the College of Holy …, priority 2010, published 2013).

Legend:
[1] = Prediction of permeability coefficient Kp and human steady-state plasma level
Excerpt: A further approach to estimating human plasma levels following transdermal administration was outlined by Howes et al. (ATLA, 24:81-106, 1996) and was based on a mass balance approach whereby the input and output quantities of drug are considered equal. Rewriting “input=output” for transdermal systems gives:
A×Kp×Cappl=CL×Cp Eqn. 10.6
where A is the area of application, Kp is the permeability coefficient of the drug through the skin, Cappl is the applied concentration, CL is the plasma clearance and Cp is the steady-state plasma concentration of the drug. Rearranging the equation to estimate Cp gives: […]
A number of methods for determining Kp based on the lipophilicity and molecular weight of the drug in question are available. Potts and Guy (Pharm. Res., 9:663-669, 1992) found the following relationship:
Another method of calculating Kp which makes use of in vitro data is described by Hewitt et al. (In vitro cutaneous disposition of a topical diclofenac lotion in human skin: Effect of a multidose regimen, in Percutaneous Absorption, Bronaugh, R. L. and Maibach, H. I. (Eds.), Marcel Dekker Inc., New York, 1999):
Kp(cm/h)=absorption(μg)/[area×concentration(μg/cm^3)×time] Eqn. 10.11
Values for Kp were calculated using Eqns. 10.9 and 10.10 using the MW value for Compound B di-oleate (1,767 g/mol) and its previously determined KOW value (340.43). Additionally, Eqn. […]

[2] = Solubility of somatostatin fatty-acid salts; assay type: physicochemical; conditions: 24 hours
Protocol: The solubilities of Compound A and Compound B oleate were determined in deionized water, phosphate-buffered saline (PBS; pH 7.4) and n-octanol. Analysis was carried out by placing an excess of each salt with 1 ml of the selected solvent into four 4 ml sealed HPLC vials. The samples were allowed to equilibrate at 37° C. for 24 hours with shaking. Each of the four dispersions was then filtered through a 0.2 μm nylon membrane (Pall Gelman, Ann Arbor, Mich., U.S.A.). Prior to HPLC analysis, the n-octanol samples were diluted 1:100 with methanol and the PBS and deionized water samples were diluted 1:10 in de-ionized water. Table 7 lists the solubilities of Compound A and Compound B oleate salts in deionized water, PBS and n-octanol.

[3] = In vitro transdermal permeation, diffusion cell, hairless mouse skin; assay type: in vitro ADME, hairless mice
Excerpt: The abdominal skin from male hairless mice (mice of the HRS strain carrying a mutant Hr gene (hr/hr)) aged 6-8 weeks was cleaned of any subcutaneous fat with blood vessels while maintaining the integrity of the viable epidermis and SC. The excised skin was used immediately after preparation and was not stored prior to use.
A custom made finite dosing diffusion cell (AGB Scientific, Dublin, Ireland, FIG. 1) based upon and modified from the Keshary-Chien type diffusion cell was used for in vitro permeation studies.
Three to five diffusion cells were used in each permeation experiment and monitoring was performed over a 48 hour period. The cells were linked in series to a thermostatically controlled circulation bath set at 35° C. to mimic human skin surface temperature. Each cell was placed on a stir-plate set at a defined stirring rate of 1,000 rpm. The surface area for permeation provided by each cell was 3.14 cm^2.
Data collected from each permeation study included:
1) the average maximum flux obtained in 48 hours (Jmax),
2) the total absorption characterized as the total weight of peptide delivered transdermally into the receiver compartment over a 48 hour period,
3) the lag time to detectable flux which was equivalent to the latest sampling time at which no peptide was detectable by HPLC analysis of the receiver solution, and
4) an equivalent 48-hour steady state flux was determined by obtaining the slope of the best-fit line for a plot of cumulative flux per unit area versus time (described by McDaid, D. M. et al., Int. J. Pharm., 133:71-83, 1996).
Fresh hairless mouse skin samples or fresh or freshly thawed pig skin samples were mounted onto the diffusion cell with the SC topmost and in contact with the donor system. A rubber or plastic ring was placed on top of the skin sample to secure it in position. The combination of the diffusion cell top, the skin and the rubber ring was securely fastened together by means of a threaded cap. A recorded volume of receiver solution was added to the receiver compartment and maintained at 35° C. The receiver solution was 60/40 (v/v) PBS/propylene glycol (pH 7.1). The propylene glycol fraction was used to increase the solubility of the somatostatin-fatty acid salts. Previous work reported by Morgan et al. (J. Pharm. Sci., 87:1213-1218, 1998) has shown that a 50/50 water/propylene glycol receptor solution had no detrimental effect on the barrier integrity of both hairless mouse and porcine skin.
The receiver solution was allowed to equilibrate at 35° C. for 30 minutes. […] A narrow-bore hypodermic needle was used to withdraw 1 ml samples from the receiver compartment via the sampling port; at each sampling time, an equal volume of drug-free receiver solution was immediately added back to the receiver compartment. Samples were analyzed by HPLC.
HPLC determination of peptide content in the receiver solution along with the known surface area of skin used (3.14 cm^2) allowed for calculation of transdermal flux (in units of μg/cm^2/hr) for each time point. Panels 1 and 2 of FIG. 2 show flux […] profiles for the myristate, octanoate, decanoate, linoleate, nonanote, acetate and laurate […]
Once lead candidate somatostatin-fatty acid salts had been selected on the basis of in vitro permeation in a DMSO solution, the effect of different solvents and penetration enhancers on permeation was assessed. The concentration of the donor solution corresponded to 5 mg/ml free base peptide for all experiments and all donor solutions were equilibrated at 37° C. for one hour prior to use. These experiments were carried out using hairless mouse skin and pigskin barriers.

[4] = donor 55% EtOH 40% Water 5% Cineole, 5 mg/ml free base peptide
[5] = donor 55/45 (v/v) EtOH/H2O, approx. 5 mg/ml free base peptide
[6] = donor DMSO, approx. 5 mg/ml free base peptide (4.9 mg/ml Compound A oleate, 5.2 mg/ml Compound A acetate)
[7] = donor DMSO, approx. 5 mg/ml free base peptide (4.9 mg/ml Compound A oleate, 5.2 mg/ml Compound A acetate), 48 hr

Substance: [4-(2-hydroxyethyl)]-1-piperazinylacetyl-D-Phe-c(Cys-Tyr-D-Trp-Lys-Abu-Cys)-Thr-NH2 [Compound B di-oleate]
- Kp Value Obtained ([1]; Eqn. 10.11 from in vitro absorption across pig epidermis, optimized donor vehicle): 0.0003476 cm/h
- steady-state plasma level (Cp) ([1]; predicted for human, Eqn. 10.8 with Kp of Eqn. 10.11, area 20 cm^2, 5 mg/cm^3 applied): 1.6998 ng/mL
- Solubility PBS ([2]; PBS pH 7.4, 37° C.): 1302 µg/mL
- Solubility DI H2O ([2]; deionized water, 37° C.): 50 µg/mL
- Solubility n-Octanol ([2]; n-octanol, 37° C.): 136900 µg/mL
- increase in total peptide flux over 48 hours due to cineole ([3]; 55/40/5 ethanol/water/cineole vs 55/45 ethanol/water): 19.26%
- Jmax [3, 4]: 39.838 μg/cm^2/hr
- Jss [3, 4]: 24.075 μg/cm^2/hr
- Lag Time [3, 4]: 1 h
- Total Absorption [3, 4]: 3,279.62 μg/48 hr
- Jmax [3, 5]: 32.902 μg/cm^2/hr
- Jss [3, 5]: 20.264 μg/cm^2/hr
- Lag Time [3, 5]: 1 h
- Total Absorption [3, 5]: 2,750.01 μg/48 hr
- Lag Time [3, 6]: 1 h
- Total Absorption [3, 6]: 814.86 μg/48 hr
- Jmax [3, 7]: 21.407 μg/cm^2/hr
- Jss [3, 7]: 5.158 μg/cm^2/hr
- flux profile in DMSO compared with other salts ([3]; vs myristate, octanoate, decanoate, linoleate, nonanoate, acetate, laurate salts of Compound A and acetate of Compound B): far exceeded
